{"source": "patent US5563037A", "about": "“Homogeneous method for assay of double-stranded nucleic acids using fluorescent dyes and kit useful therein” (Johnson & Johnson Clinical Diagnostics, Inc., priority 1995, dated 1996)", "key": {"HIV-I DNA [1]": {"system": "HIV-I DNA", "test": "Example 1: PCR amplification of HIV-I DNA with YO-PRO-1 dye, fluorescence vs. PCR cycles", "assay_type": "biochemical", "source_text": "The primers used in Examples 1 and 2 had the following sequences which are complementary to the gag region of HIV-I DNA:\nHIV-I target DNA was obtained from HUT78/HIV AAV cells obtained from Bernie Poiesz of Syracuse University. Each cell contained about 1 HIV-I copy.\nThe final PCR reaction mixture contained the primers SEQ ID NO:1 and SEQ ID NO:2 (0.4 μmolar of each), magnesium chloride (10 mmolar), each of dATP, dCTP, dGTP and dTTP (1.5 mmolar of each), tris(hydroxymethyl)aminomethane buffer (10 mmolar, pH 8), ethylenediaminetetraacetic acid (0.1 mmolar), potassium chloride (50 mmolar), DNA polymerase (160 units/ml) and Kodak Ultrapure Human DNA (0.22 μg/μl), glycerol (7.5%). […]\nAll reagents, except the DNA polymerase, were mixed with the buffer solution noted above. […] The fluorescence of the contents of that tube was then measured following dilution (100 μl of reaction mixture with 3900 μl of dye solution at a concentration of […], giving a final fluid volume of 4 ml in the fluorimeter cuvette) on a commercially available Perkin-Elmer LS-5B spectrofluorimeter (excitation at 491 nm, emission at 509 nm).\nThe results of these measurements are shown in the FIGURE which is a plot of fluorescence intensity vs. the number of PCR cycles. […]"}, "HIV-I DNA [2]": {"system": "HIV-I DNA", "test": "Example 2: fluorescence of amplification products", "assay_type": "biochemical", "procedure": "The method of this invention was compared to an amplification and detection method outside the scope of this invention, which was carried out using YOYO-1 (1 μmolar final concentration), a tetravalent fluorescent dye, in the buffered solution described above. This dye has the following structure: [drawing 4]\nThe PCR reaction mixture of Example 1 (except the DNA polymerase) was made to a volume of 5472 μl. The resulting mixture was aliquoted into tubes A, B and C (1824 μl each) representing Samples A, B and C, respectively.\nThe sample in Tube A was diluted with buffer (220 μl) and subjected to amplification without any fluorescence dye present. The dye was added at the end of amplification for quantitative detection of the resulting products.\nIn addition to the PCR reagents, the sample in Tube B contained YOYO-1 fluorescent dye (0.1 μmolar) which had been added prior to amplification (220 μl of a 10 μmolar solution).\nThe sample in Tube C also contained YO-PRO-1 fluorescent dye (0.1 μmolar) which had been added prior to amplification (220 μl of a 10 μmolar solution).\nThe DNA polymerase (88 μl) and target HIV-I DNA target nucleic acid (220 μl) were then added to each tube, and the contents of the each of the three tubes were used to fill the PCR reagent compartment of eight pouches.\nAmplification was carried out using the same procedures as in Example 1. […]\nThe results of amplification were detected in three ways: (1) color dye scores visually evaluated as 0 (no signal) to 10 (highest signal density), (2) ethidium bromide stained electrophoretic gels, and (3) fluorescence measured on a commercially available Perkin Elmer fluorimeter.\nThree replicate assays of each sample (A, B and C) were carried out using each detection means. The average result for each detection means was as follows:\nFluorescent signal was generated using a Perkin-Elmer LS-5B fluorimeter, at the following wavelengths for both dyes:\nEach amplification product mixture was diluted 100× into a solution of each dye (1 μmolar final concentration). Background signals were obtained from a mixture of amplification reagent mixture and each dye."}}, "note": "Where “and” joins values, the source holds several entries; their conditions need not be identical. Equal entries are not always repeated.", "data": [{"smiles": "C[n+]1c(C=C2C=CN(CCC[N+](C)(C)C)c3ccccc32)oc2ccccc21", "note": "[Compound E]", "values": [{"measurement": "fluorescence after PCR", "setting": "HIV-I DNA [1]; after 45 PCR cycles, excitation 491 nm, emission 509 nm", "result": "about 20 fluorescent units"}, {"measurement": "effect of dye on PCR", "setting": "HIV-I DNA [1]; dye present throughout entire amplification, 1 μmolar", "result": "did not adversely affect PCR"}, {"measurement": "Fluorescence, dye added after amplification (Sample A)", "setting": "HIV-I DNA [2]; Sample A, dye added after amplification, replicates, 491/509 nm, listed as YO-PRO-1", "result": "3.6 Fluorescent Units and 3.7 Fluorescent Units and 3.4 Fluorescent Units and 3.0 Fluorescent Units"}, {"measurement": "Background fluorescence", "setting": "HIV-I DNA [2]; amplification reagent mixture and dye, excitation 491 nm, emission 509 nm", "result": 0.03, "unit": "Fluorescent Units"}, {"measurement": "effect of dye on amplification / overall signal", "setting": "HIV-I DNA [2]; comparison of the two dyes (fluorescence)", "result": "lower overall signal"}, {"measurement": "Fluorescence, dye present during amplification (Samples B, C)", "setting": "HIV-I DNA [2]; dye added prior to amplification, replicates, 491/509 nm, listed as YO-PRO-1", "result": "3.7 Fluorescent Units and 3.5 Fluorescent Units and 3.6 Fluorescent Units and 3.2 Fluorescent Units and 2.8 Fluorescent Units"}, {"measurement": "signal and use of dye during amplification", "setting": "HIV-I DNA [2]; dye included in reagent mixture during amplification", "result": "can be included in the reagent mixture during amplification"}]}]}
